The text below walks through data of PMC9014845 (Clinical cancer research : an official journal of the …, 2019).

Series [1] concerns advanced solid tumors harboring FGFR1–3 gene alterations. Put plainly: Tumor response according to RECIST 1.1.
A further series deals with FGFR. Put plainly: Tissue biomarkers in skin and tumor biopsies. Type of series: in vivo, human.
Another series deals with monkeys. The series is described as follows: 4-week repeated-dose toxicity study. Type of series: in vivo, monkey.

With Debio 1347, in series [1] (10 patients, doses ≥60 mg/day), the “Disease stabilization among patients with confirmed FGFR fusions” value was determined as 5 patients and the “PRs among patients with confirmed FGFR fusions” value was 3 patients. In addition, in series [1] (57 evaluable), the “Patients with stable disease as best objective response” value turned out to be 16 patients and the “Patients with stable disease showing reduced target lesion size (tumor size regressions of ≤30%)” value is recorded as 10 patients. Further, the “Response per independent central radiological review” value in series [1] (one patient with cholangiocarcinoma, 110 mg, changed from partial) was “confirmed complete response”. Further, the “Disease control rate (DCR)” value in series [1] (overall) was 39%. Besides, the “Disease control rate (DCR)” value in series [1] (patients with confirmed FGFR fusions, ≥60 mg/day) turned out to be 80%. Further, in series [1] (range 24–47), the “Median treatment duration in patients with disease control” value was determined as 34 weeks. The “DUSP6 mRNA expression change in tumor biopsies” value in the series on FGFR (on treatment (day 8), 14 paired biopsies) was “a decrease in DUSP6 was observed”. The “Change of phosphorylated markers (pERK, pFRS2, pS6) in skin biopsies” value with FGFR (predose to day 8, 31 biopsy pairs, immunohistochemistry) is given as “no clear decrease”. In addition, in the series on FGFR (tumor biopsies), the “Patients with DUSP6 decrease >50% who achieved a PR” value is “two out of three”. Further, the “Highest non-severely toxic dose” value in the series with monkeys worked out at 4 mg/kg/day.
